This is an account of results in patent US11925629B2, “Heterocyclic inhibitors of ERK1 and ERK2 and their use in the treatment of cancer” (Asana Biosciences, LLC, priority 2015, dated 2024).

Format in all cases: cell-based, human
Test [1] has as its system HT-29 (colorectal carcinoma, B-RafV600E) cells. As to the kind of experiment: Cell proliferation (Alamar Blue) assay, HT-29. The note with it: Homo sapiens, HT-29, HT29 cells. In a few lines:
(§1)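 5000 cells/well, 16-24 h attach; cpd 0.0005-10 uM (3-fold dilns) x 72 h, 37° C./5% CO2; Alamar Blue 1× 1-3 h; fluor 540/590 nm; IC50, variable-slope sigmoid.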

Test [2] deals with HCT116 (colorectal carcinoma, K Ras G13D) cells. The experiment in a line: Cell proliferation (Alamar Blue) assay, HCT116. The note with it: Homo sapiens, HCT-116, HCT116 cells. The essentials:
as §1
On the technique in general: The colour change of resazurin is a common sign of viable cells or microbes.

Test [3] deals with phosphorylation of RSK1(S380) (the downstream target of ERK1/2). The experiment in a line: Phospho-RSK1(S380) ELISA assay in HT-29 cells. The note with it: Homo sapiens, HT-29, HT29 cells, phospho-RSK1(S380); read-out: Mechanistic Cell Assay RSK1 Phos HT29 IC50. The essentials: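 HT-29 colorectal carcinoma cells (B-RafV600E), plated overnight at 37° C./5% CO2, were treated with compound dilutions for 2 h. Lysates were analysed by phospho-RSK1(Ser380) sandwich ELISA with absorbance at 450 nm. IC50 came from a sigmoidal variable-slope dose-response fit.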
In general terms: An ELISA detects its analyte on a solid surface through an enzyme-linked reagent.

Broadly, the IC50 is the concentration needed to halve the response being measured. In the case of `Cc1cnc(Nc2cccnc2)cc1-n1ccc(C(=O)NC(CO)c2ccc(F)c(Cl)c2)c1` (stereo not drawn) [Example 171, N-(1-(3-chloro-4-fluorophenyl)-2-hydroxyethyl)-1-(5-methyl-2-(pyridin-3-ylamino)pyridin-4-yl)-1H-pyrrole-3-carboxamide], the IC50 in test [1] is 500 to 2500 nM; in test [2], more than 2500 nM; in test [3] it was more than 2500 nM.
As for `Cc1cnc(Nc2ccc3c(c2)OCO3)nc1-n1ccc(C(=O)NC(CO)c2ccc(F)cc2)c1` (stereo not drawn) [Example 172, 1-(2-(benzo[d][1,3]dioxol-5-ylamino)-5-methylpyrimidin-4-yl)-N-(1-(4-fluorophenyl)-2-hydroxyethyl)-1H-pyrrole-3-carboxamide], the IC50 was 500 to 2500 nM in test [1], 250 to 500 nM in test [2] and 100 to 250 nM in test [3].
For `Cc1cnc(Nc2ccc3c(c2)CCCO3)nc1-n1ccc(C(=O)NC(CO)c2ccccc2)c1` (stereo not drawn) [Example 173, 1-(2-(chroman-6-ylamino)-5-methylpyrimidin-4-yl)-N-(2-hydroxy-1-phenylethyl)-1H-pyrrole-3-carboxamide], the IC50 in test [1], in test [2] and in test [3] was 100 to 250 nM throughout.
`Cc1cnc(NC2CCNC2)nc1-n1ccc(C(=O)N[C@H](CO)c2cccc(Cl)c2)c1` (stereo partly drawn) [Example 174, N-((S)-1-(3-chlorophenyl)-2-hydroxyethyl)-1-(5-methyl-2-(pyrrolidin-3-ylamino)pyrimidin-4-yl)-1H-pyrrole-3-carboxamide]: the IC50 in test [1], in test [2] and in test [3] was more than 2500 nM each time.
Consider `Cc1cnc(Nc2ccc(F)c(N3CCOCC3)c2)nc1-n1ccc(C(=O)NC(CO)c2cccc(Cl)c2)c1` (stereo not drawn) [Example 175, N-(1-(3-chlorophenyl)-2-hydroxyethyl)-1-(2-((4-fluoro-3-morpholinophenyl)amino)-5-methylpyrimidin-4-yl)-1H-pyrrole-3-carboxamide], for which the IC50 is not above 100 nM in test [1], 250 to 500 nM in test [2] and 100 to 250 nM in test [3].
Taken in the same sequence, the figures for `O=C(NC(CO)c1cccc(Cl)c1)c1ccn(-c2ccnc(Nc3ccc4c(c3)OC(F)(F)O4)n2)c1` (stereo not drawn) [Example 176, N-(1-(3-chlorophenyl)-2-hydroxyethyl)-1-(2-((2,2-difluorobenzo[d][1,3]dioxol-5-yl)amino)pyrimidin-4-yl)-1H-pyrrole-3-carboxamide] were 500 to 2500 nM, more than 2500 nM and 500 to 2500 nM.
Taken in the same sequence, the figures for `Cc1cnc(Nc2ccc(F)cc2)nc1-n1cnc(C(=O)NC(CN)c2cccc(Cl)c2)c1` (stereo not drawn) [Example 177, N-(2-amino-1-(3-chlorophenyl)ethyl)-1-(2-((4-fluorophenyl)amino)-5-methylpyrimidin-4-yl)-1H-imidazole-4-carboxamide] were not above 100 nM, 100 to 250 nM and 100 to 250 nM.
Taken in the same sequence, the figures for `Cc1cnc(Nc2ccc(N3CCC(N4CCNCC4)CC3)cc2)nc1-n1ccc(C(=O)NC(CO)c2ccccc2)c1` (stereo not drawn) [Example 178, N-(2-hydroxy-1-phenylethyl)-1-(5-methyl-2-((4-(4-(piperazin-1-yl)piperidin-1-yl)phenyl)amino)pyrimidin-4-yl)-1H-pyrrole-3-carboxamide] were more than 2500 nM, 500 to 2500 nM and 250 to 500 nM.
`Cc1cnc(Nc2ccc(F)c(C(=O)N3CCN(C)CC3)c2)nc1-n1ccc(C(=O)NC(CO)c2cccc(Cl)c2)c1` (stereo not drawn) [Example 179, N-(1-(3-chlorophenyl)-2-hydroxyethyl)-1-(2-((4-fluoro-3-(4-methylpiperazine-1-carbonyl)phenyl)amino)-5-methylpyrimidin-4-yl)-1H-pyrrole-3-carboxamide]: the IC50 in test [1], in test [2] and in test [3] was 500 to 2500 nM throughout.
For `Cc1cnc(Nc2ccccc2)cc1-n1cnc(C(=O)NC(CO)c2cccc(Cl)c2)c1` (stereo not drawn) [Example 180, N-(1-(3-chlorophenyl)-2-hydroxyethyl)-1-(5-methyl-2-(phenylamino)pyridin-4-yl)-1H-imidazole-4-carboxamide], the IC50 in test [1] is 500 to 2500 nM; in test [2], more than 2500 nM; in test [3], 250 to 500 nM.
In the same order, the values of `COc1cc(C(=O)N2CCOCC2)c(F)cc1Nc1ncc(C)c(-n2ccc(C(=O)NC(CO)c3cccc(Cl)c3)c2)n1` (stereo not drawn) [Example 181, N-(1-(3-chlorophenyl)-2-hydroxyethyl)-1-(2-((5-fluoro-2-methoxy-4-(morpholine-4-carbonyl)phenyl)amino)-5-methylpyrimidin-4-yl)-1H-pyrrole-3-carboxamide] are more than 2500 nM, more than 2500 nM and 500 to 2500 nM.
In the same order, the values of `Cc1cc(Nc2ncc(C)c(-n3ccc(C(=O)NC(CO)c4cccc(Cl)c4)c3)n2)ccc1C1CCNCC1` (stereo not drawn) [Example 182, N-(1-(3-chlorophenyl)-2-hydroxyethyl)-1-(5-methyl-2-((3-methyl-4-(piperidin-4-yl)phenyl)amino)pyrimidin-4-yl)-1H-pyrrole-3-carboxamide] are 500 to 2500 nM, 250 to 500 nM and 500 to 2500 nM.
For `Cc1cn(-c2ccnc(Nc3ccccc3)c2)cc1C(=O)N[C@H](CO)c1cccc(Cl)c1` [Example 183, (S)-N-(1-(3-chlorophenyl)-2-hydroxyethyl)-4-methyl-1-(2-(phenylamino)pyridin-4-yl)-1H-pyrrole-3-carboxamide], the IC50 was more than 2500 nM in test [1], more than 2500 nM in test [2] and 500 to 2500 nM in test [3].
Consider `COc1ccc(Nc2ncc(C)c(-n3ccc(C(=O)NC(CO)c4cccc(Cl)c4)c3)n2)cc1OCCCN(C)C` (stereo not drawn) [Example 184, N-(1-(3-chlorophenyl)-2-hydroxyethyl)-1-(2-((3-(3-(dimethylamino)propoxy)-4-methoxyphenyl)amino)-5-methylpyrimidin-4-yl)-1H-pyrrole-3-carboxamide], for which the figures for the IC50 in test [1], in test [2] and in test [3] were 500 to 2500 nM, 250 to 500 nM and 500 to 2500 nM, respectively.
Regarding `Cc1cnc(Nc2ccc3c(c2)OCC3)nc1-n1ccc(C(=O)NC(CO)c2ccccc2)c1` (stereo not drawn) [Example 185, 1-(2-((2,3-dihydrobenzofuran-6-yl)amino)-5-methylpyrimidin-4-yl)-N-(2-hydroxy-1-phenylethyl)-1H-pyrrole-3-carboxamide], the IC50 in test [1], in test [2] and in test [3] was 250 to 500 nM throughout.
Turning to `Cc1cnc(Nc2ccc3c(c2)OCCC3)nc1-n1ccc(C(=O)NC(CO)c2ccccc2)c1` (stereo not drawn) [Example 186, 1-(2-(chroman-7-ylamino)-5-methylpyrimidin-4-yl)-N-(2-hydroxy-1-phenylethyl)-1H-pyrrole-3-carboxamide], the IC50 in test [1] fell in the range of 500 to 2500 nM; in test [2] it was 250 to 500 nM; in test [3], 500 to 2500 nM.
For `Cc1cccc(C(CO)NC(=O)c2ccn(-c3nc(N[C@H]4CCOC4)ncc3C)c2)c1` (stereo partly drawn) [Example 187, N-(2-hydroxy-1-(m-tolyl)ethyl)-1-(5-methyl-2-(((S)-tetrahydrofuran-3-yl)amino)pyrimidin-4-yl)-1H-pyrrole-3-carboxamide], the IC50 in test [1] is 250 to 500 nM; in test [2] it was 500 to 2500 nM; in test [3] it was 250 to 500 nM.
With `O=C(N[C@H](CO)c1cccc(Cl)c1)c1ccn(-c2ccnc(NC3CCOC3)c2)c1` (stereo partly drawn) [Example 188, N-((S)-1-(3-chlorophenyl)-2-hydroxyethyl)-1-(2-((tetrahydrofuran-3-yl)amino)pyridin-4-yl)-1H-pyrrole-3-carboxamide], the IC50 in test [1], in test [2] and in test [3] was more than 2500 nM each time.
As to `Cc1cnc(NCC2CCCO2)nc1-n1ccc(C(=O)N[C@H](CO)c2cccc(Cl)c2)c1` (stereo partly drawn) [Example 190, N-((S)-1-(3-chlorophenyl)-2-hydroxyethyl)-1-(5-methyl-2-(((tetrahydrofuran-2-yl)methyl)amino)pyrimidin-4-yl)-1H-pyrrole-3-carboxamide], the figures for the IC50 in test [1], in test [2] and in test [3] were more than 2500 nM, more than 2500 nM and 250 to 500 nM, respectively.
On to `Cc1cnc(NCc2cccnc2)cc1-n1ccc(C(=O)NC(CO)c2ccc(F)c(Cl)c2)c1` (stereo not drawn) [Example 193, N-(1-(3-chloro-4-fluorophenyl)-2-hydroxyethyl)-1-(5-methyl-2-((pyridin-3-ylmethyl)amino)pyridin-4-yl)-1H-pyrrole-3-carboxamide], for which the IC50 in test [1] is more than 2500 nM; in test [2], more than 2500 nM; in test [3], 500 to 2500 nM.
As for `Cc1cnc(Nc2ccc(F)c(C(=O)N(C)C)c2)nc1-n1ccc(C(=O)NC(CO)c2cccc(Cl)c2)c1` (stereo not drawn) [Example 194, N-(1-(3-chlorophenyl)-2-hydroxyethyl)-1-(2-((3-(dimethylcarbamoyl)-4-fluorophenyl)amino)-5-methylpyrimidin-4-yl)-1H-pyrrole-3-carboxamide], the figures for the IC50 in test [1], in test [2] and in test [3] were 250 to 500 nM, 500 to 2500 nM and 250 to 500 nM, respectively.
With `Cc1cnc(NC2CCCCC2)nc1-n1ccc(C(=O)NC(CO)c2cccc(Cl)c2)c1` (stereo not drawn) [Example 195, N-(1-(3-chlorophenyl)-2-hydroxyethyl)-1-(2-(cyclohexylamino)-5-methylpyrimidin-4-yl)-1H-pyrrole-3-carboxamide], the IC50 in test [1] is 100 to 250 nM; in test [2], 500 to 2500 nM; in test [3] it was 100 to 250 nM.
